Assay type in all cases: cell-based, Escherichia coli
The test system of one assay is E. coli ATCC 25922. The protocol:
Strain ATCC 25922GFP (ATCC, Virginia, USA), which carries a GFP-expressing plasmid, was selected for biofilm experiments. The strain’s ability to form biofilms was first verified at 37°C using Congo Red staining on agar plate containing M9gluCAAT. Congo Red dye binds curli, a major component of the biofilm extracellular matrix. Strain ATCC 25922 (lacking the GFP-expressing plasmid) was used for MIC determination (to avoid interference from the presence of ampicillin required to maintain the plasmid) following the standard growth protocol described above.
(§1) To determine the minimal inhibitory concentration (MIC) of the selected AMPs against either MG1655 or ATCC 25922 E. coli strains, exponentially growing cells were diluted in fresh medium to an OD = 10^−6 (~500 cells/mL) and mixed 50:50 with titrated AMP concentrations (which were chosen to be over a range that included the MIC) in a 96-well plate (flat bottom with low evaporation lid, 3595, Corning, Arizona, USA). A final OD of 5 × 10^−7 corresponds to ~250 cells/mL. OD curves were sampled every 5 min for a total of 48 h using a microplate reader (BioTek Synergy 2, Agilent Technologies Inc., California, USA). Raw data were exported as a text file and analysed using a custom-written Python script (microplate_reader_analysis.py). To measure maximum growth rates, the log(OD) was fitted using a linear regression over a 12-point moving window (60 min), which provides the instantaneous growth rate (log(OD)/h), from which the global maximum was computed. The MIC was defined as the minimum AMP concentration for which the maximum growth rate was < 0.2 log(OD)/h within the first 20 h of incubation. Each MIC experiment was performed independently at least three times (with at least two technical replicates each), and the mode across all replicates was taken as the final MIC; in the rare cases of a tie, an additional replicate was performed, which was sufficient to resolve it.

For the next assay, the system named is E. coli (MG1655). The settings on record: MG1655, 20 h. The protocol:
For all experiments and E. coli strains, cells were grown in a medium (M9gluCAAT) with M9 salts (33.7 mM Na2HPO4, 22mM KH2PO4, 8.55 mM NaCl, 9.35 mM NH4Cl), 0.2% (w/v) glucose, 0.4% (w/v) casamino acids, 1 mM MgSO4, 0.3 mM CaCl2, 1 μg/mL thiamine, and trace elements (13.4 mM ethylene-diamine-tetra-acetic-acid (EDTA), 3.1 mM FeCl3-6H2O, 0.62 mM ZnCl2, 76 μM CuCl2-2H2O, 42 μM CoCl2-2H2O, 162 μM H3BO3, 8.1 μM MnCl2-4H2O). Prior to every experiment, cells were first inoculated into M9gluCAAT and grown to stationary phase at 37°C. For all assays except the biofilm experiments, the culture was diluted to 1/10,000 or more in fresh medium and grown at 37°C until it reached an optical density at 600 nm (OD) of 0.2–0.4. For the biofilm experiments, cells were grown in M9gluCAAT supplemented with 100 μg/mL ampicillin to maintain the GFP-expressing plasmid. The overnight stationary-phase cultures were then diluted into the same medium to an OD of 0.015. See below for details on biofilm growth.
Except for the biofilm experiments, the strains used in this study were derived from MG1655 (ATCC 47076), which was used to estimate the minimum inhibitory concentration (MIC) for all the studied peptides (or peptoids) using a microplate reader (Figure 1A). To detect the timing of outer and inner membrane permeabilization to proteins, strain CJW7845 was constructed to carry two freely diffusing fluorescent proteins: mScarlet-I in the periplasm and mTagBFP2 in the cytoplasm. Construction of CJW7845 was done by transforming pBAD-mTagBFP2 plasmid (Addgene #34632, a gift from Vladislav Verkhusha; ([Subach et al., 2011])) into an E. coli strain expressing a periplasmic mScarlet-I reporter ([Cañas-Duarte 2021]), as previously described ([Chung et al., 1989]). Transformants were restreaked on fresh selection plates and confirmed via microscopy.
as §1

The next assay has as its system E. coli strain (CJW7845). The assay is described as follows: Time-lapse single-cell phenotyping of inner/outer membrane permeabilization to proteins and growth arrest in microwells. The arrangement: key to Class (timing of growth arrest relative to IM permeabilization to proteins): Class I AMPs and PMs cause growth arrest predominantly associated with inner membrane (IM) permeabilization; class II compounds inhibit growth without substantial IM permeabilization. The settings on record: for OM-permeabilized cells among IM-permeabilized cells: CJW7845, during the experiment. Here is the method:
For experiments with PDMS microwells, cells were allowed to grow for ~30 min in the temperature-controlled enclosure prior to imaging. A 10X concentrated AMP solution was spiked in (at 1/10 the volume of the well) and mixed well by pipetting after ~20 min from the start of the image acquisition, without interrupting the timelapse sequence. When the uptake of SYTOX Green was monitored, SYTOX Green was included in the AMP solution and spiked in during the experiment to obtain a final concentration of SYTOX Green of 50 nM in the well. This allowed us to monitor healthy cell growth prior to AMP treatment, to rapidly set the desired AMP (or SYTOX Green) concentration from one frame to the next (unlike for flow-controlled injection systems), and to resolve the AMP-induced phenotype in real time. The current design allows for testing up to four independent conditions in parallel.
To analyse the single-cell experiments in microwells, OmniSegger software (https://github.com/tlo-bot/omnisegger), which combines SuperSegger MATLAB-based suite ([Stylianidou et al., 2016]) for cell analysis with Omnipose segmentation ([Cutler et al., 2022]), was used to first process the microscopy images by performing drift correction, cell segmentation, and cell linking. Given that AMP-treated cells can display extreme phenotypes, such as exceedingly bright and/or heterogeneous phase contrast signal (likely a result of the widely changing intracellular density upon AMP treatment) and that the software’s pre-trained model bact_phase_omni ([Cutler et al, 2022]) tended to split cells before cell division was completed, a new Omnipose model was trained from scratch starting from bact_phase_omni-generated masks that were further corrected and curated using custom-made Python scripts (screening_good_bad.py and generate_training_dataset.py). Details on the Omnipose model retraining can be found in a previous publication ([Thappeta et al., 2025]). The final model (omnipose_phase_microwells_model) and corresponding training datasets are available at https://github.com/JacobsWagnerLab/published/tree/master/Fragasso_et_al_2025 and BioImage Archive (accession number: S-BIAD1823), respectively.
MATLAB files of the linked cell trajectories output from OmniSegger were then imported, background subtracted using background_subtraction.py, which was adapted from a previous study ([Papagiannakis et al., 2025]), and converted to Python data structures (import_processing_code.py), from which cell features such as cell area, nucleoid area, mean fluorescence intensity, etc., were extracted for each cell at each frame. The exported dataframes were further processed to estimate instantaneous growth rates and were run through a series of functions to perform curation based on cell areas and instantaneous growth rates over time (post_processing_curation_functions.py). […] Represented data points were pooled from multiple replicates.
Analysis of strain CJW7845 proceeded by extracting the timings of permeabilization of the outer and inner membranes based on the mean fluorescence intensities of mScarlet-I and/or mTagBFP2 fluorescent proteins (using function get_permeabilization_time.py), cell growth arrest, and the initiation time of growth inhibition. To obtain accurate timings underlying membrane permeabilization events, information from both the signal intensity itself as well as its derivative were combined, which enabled us to accurately resolve the relevant changes in fluorescent protein signal beyond the intrinsic high-frequency noise and low-frequency photobleaching. Inner membrane permeabilization to proteins can result in two possible phenotypes when simultaneously monitoring freely diffusing periplasmic and cytoplasmic probes, depending on which membrane (outer or inner) becomes permeabilized first. When the outer membrane is first permeabilized, mScarlet-I signal is lost first, followed by mTagBFP2 when the inner membrane becomes also permeabilized. […]

Setting [1] is: 2X MIC, CJW7845, M9gluCAAT, 37°C, time-lapse microscopy.

Where two headings read alike, the source gives them in different places. Bridge positions count the residues as written; N and C are the ends. Ends that are not written are not given here.

In the case of “RRRPRPPYLPRPRPPPFFPPRLPPRIPPGFPPRFPPRFP-NH2 [PR-39]”, the “MIC (mode MIC)” value in the assay on E. coli ATCC 25922 (ATCC 25922, 20 h) was determined as 1 µM; in the assay on E. coli (MG1655), 2 µM.
The corresponding values for “KWKLFKKIEKVGQNIRDGIIKAGPAVAVVGQATQIAK-NH2 [CecA, cecropin A]” are 0.5 µM and 0.5 µM.
The corresponding values for “RRIRPRPPRLPRPRPRPLPFPRPGPRPIPRPLPFP [Bac7, bactenecin-7]” are 0.6 µM and 0.6 µM.
The like results for “RRIRFRPPYLPRPGRRPRFPPPFPIPRIPRIP [Tur1A]” were, in that order, 1 µM and 1 µM.
For the molecule `CC(C)C[C@H](NC(=O)[C@H](CCCNC(=N)N)NC(=O)CNC(=O)CNC(=O)[C@@H](N)CCCNC(=N)N)C(=O)N[C@H]1CSSC[C@@H](C(=O)N[C@H](C(=O)NCC(=O)N[C@@H](CCCNC(=N)N)C(N)=O)C(C)C)NC(=O)[C@H](C(C)C)NC(=O)[C@@H]2CSSC[C@H](NC(=O)[C@H](Cc3ccc(O)cc3)NC1=O)C(=O)N[C@@H](CCCNC(=N)N)C(=O)N[C@@H](CCCNC(=N)N)C(=O)N[C@@H](CCCNC(=N)N)C(=O)N[C@@H](Cc1ccccc1)C(=O)N2` [PG-1, protegrin-1], the “Class (timing of growth arrest relative to IM permeabilization to proteins)” value in the assay with E. coli strain (CJW7845) (setting [1]) was “I”. The “OM-permeabilized cells among IM-permeabilized cells” value in the assay on E. coli strain (CJW7845) (2X MIC) is reported as 163/163. The “OM-permeabilized cells (out of all IM-permeabilized cells)” value in the assay on E. coli strain (CJW7845) (10X MIC, CJW7845) is reported as 48/59.
In the case of `CC[C@H](C)[C@H](N)C(=O)N[C@@H](CC(C)C)C(=O)N1CCC[C@H]1C(=O)N[C@@H](Cc1c[nH]c2ccccc12)C(=O)N[C@@H](CCCCN)C(=O)N[C@@H](Cc1c[nH]c2ccccc12)C(=O)N1CCC[C@H]1C(=O)N[C@@H](Cc1c[nH]c2ccccc12)C(=O)N[C@@H](Cc1c[nH]c2ccccc12)C(=O)N1CCC[C@H]1C(=O)N[C@@H](Cc1c[nH]c2ccccc12)C(=O)N[C@@H](CCCNC(=N)N)C(=O)N[C@@H](CCCNC(=N)N)C(N)=O` [Indo, indolicidin], the “MIC (mode MIC)” value in the assay on E. coli ATCC 25922 (E. coli ATCC 25922, M9gluCAAT, 37°C, 20 h, mode across four biological replicates) is 6.2 µM; in the assay with E. coli (MG1655), 12.5 µM.
For the molecule “GIINTLQKYYCRVRGGRCAVLSCLPKEEQIGKCSTRGRKCCRRKK (disulfide 11-40, 18-33, 23-41 (inferred)) [HBD-3, human β-defensin 3]”, the “MIC (mode MIC)” value in the assay on E. coli (MG1655) turned out to be 20 µM. Further, in the assay on E. coli strain (CJW7845) (setting [1]), the “Class (timing of growth arrest relative to IM permeabilization to proteins)” value is on record as “I”; the “Type (relative timing of OM and IM permeabilization)” value was “B (type B AMPs and PMs permeabilize the IM well before (>10 min) the OM)”. Also, the “OM-permeabilized cells among IM-permeabilized cells” value with E. coli strain (CJW7845) (2X MIC) is on record as 7/82.

For the origin of these results see paper doi:10.1101/2025.04.10.648262, “Time-resolved phenotyping at subcellular resolution reveals shared principles and key trade-offs across antimicrobial peptide activities” (bioRxiv, 2026).
